Reference: patent US9505728B2, “Triazolone compounds and uses thereof” (INCEPTION 2, INC., priority 2012, dated 2016)
Like-named read-outs stand apart in the source and are kept apart here.

Tests used:
Human PPARα = target: T1, Human PPARα (Homo sapiens, UniProt Q07869); experiment: Human PPARα Reporter Assay (luciferase); format: cell-based
T1 construct: host or cells: proprietary non-human mammalian cells
T1 sequence (Q07869 1-468): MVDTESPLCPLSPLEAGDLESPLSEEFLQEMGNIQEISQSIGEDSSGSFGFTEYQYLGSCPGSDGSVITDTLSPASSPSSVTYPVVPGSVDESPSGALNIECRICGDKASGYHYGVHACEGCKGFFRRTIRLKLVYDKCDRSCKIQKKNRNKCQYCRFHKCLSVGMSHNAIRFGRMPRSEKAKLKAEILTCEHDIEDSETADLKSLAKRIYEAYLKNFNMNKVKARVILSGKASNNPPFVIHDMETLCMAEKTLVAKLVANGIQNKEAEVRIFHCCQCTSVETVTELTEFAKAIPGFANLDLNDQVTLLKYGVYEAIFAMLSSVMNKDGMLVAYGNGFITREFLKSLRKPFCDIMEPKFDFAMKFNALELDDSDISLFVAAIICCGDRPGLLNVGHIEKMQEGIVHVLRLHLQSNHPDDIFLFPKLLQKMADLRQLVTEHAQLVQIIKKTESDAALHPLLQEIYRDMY
Method in brief: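 Non-human mammalian cells constitutively expressing human PPARα with a PPARα-responsive luciferase reporter were dosed with compounds right after plating. After overnight incubation, media removed and detection reagent added; luminescence taken as proportional to PPARα activation, agonist or antagonist mode.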

Glucocorticoid Receptor = target: T2, Glucocorticoid Receptor (Homo sapiens, UniProt P04150); experiment: Target selectivity counterscreen, Glucocorticoid Receptor reporter assay; format: cell-based; conditions: receptor agonist at ~EC80
T2 construct: host or cells: engineered reporter cells of the kit
T2 sequence (P04150 1-777): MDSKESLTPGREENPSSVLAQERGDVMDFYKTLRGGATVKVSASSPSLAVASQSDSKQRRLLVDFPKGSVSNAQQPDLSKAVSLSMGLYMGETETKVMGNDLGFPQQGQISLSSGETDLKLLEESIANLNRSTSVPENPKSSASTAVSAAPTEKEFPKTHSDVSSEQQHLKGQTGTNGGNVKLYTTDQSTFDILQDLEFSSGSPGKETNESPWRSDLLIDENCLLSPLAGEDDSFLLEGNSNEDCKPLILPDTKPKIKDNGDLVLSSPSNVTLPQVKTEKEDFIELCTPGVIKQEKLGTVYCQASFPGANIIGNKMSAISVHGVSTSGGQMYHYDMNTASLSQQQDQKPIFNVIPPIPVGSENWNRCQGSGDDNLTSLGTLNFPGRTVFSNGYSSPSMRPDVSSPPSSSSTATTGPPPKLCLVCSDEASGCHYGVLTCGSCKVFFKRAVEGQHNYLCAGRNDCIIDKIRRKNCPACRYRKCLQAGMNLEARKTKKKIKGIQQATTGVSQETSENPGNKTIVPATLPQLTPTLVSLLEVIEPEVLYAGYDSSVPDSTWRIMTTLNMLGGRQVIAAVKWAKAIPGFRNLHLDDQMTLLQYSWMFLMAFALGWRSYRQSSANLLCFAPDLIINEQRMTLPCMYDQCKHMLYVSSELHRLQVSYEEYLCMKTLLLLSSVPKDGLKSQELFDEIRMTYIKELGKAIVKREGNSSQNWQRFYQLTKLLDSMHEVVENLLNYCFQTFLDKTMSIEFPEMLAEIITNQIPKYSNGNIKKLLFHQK
Procedure: Target Selectivity Assays
To determine species selectivity, a Mouse PPARα Reporter Assay System was used (Indigo Biosciences, Cat. #M00111). Activity of test compounds to antagonize or agonize other isoforms of human PPAR, for example β/δ and γ, were assessed using the corresponding kits from Indigo Biosciences (Cat. #IB00121 and #IB00101, respectively). In addition to PPAR activity, compounds were also screened for activity against other nuclear hormone receptors including Estrogen Receptor β, Glucocorticoid Receptor and Thyroid Receptor β using commercially available kits (Indigo Biosciences, Cat. #IB00411, IB00201 and IB01101, respectively). Each assay system from Indigo Biosciences uses technology analogous to the human PPARα kit, with the variance being that the cells used for each assay were engineered to over-express the receptor of interest. In addition, the appropriate receptor agonist (included with each kit) was used at ˜EC80 for assays in which antagonist potency was being assessed.

- IC50 (Human PPARα; counterscreen table, antagonist potency, read-out: PPAR alpha IC50): 67 nM
- IC50 (Human PPARα; human PPARα reporter cells, overnight incubation, antagonism, read-out: Luciferase IC50): 67 nM
- IC50 (Glucocorticoid Receptor): 36500 nM
SMILES: CCn1c(CCCc2ccc(-c3ccc(NS(=O)(=O)c4ccccc4)cn3)cc2)nn(Cc2ccc(C(C)(C)C)cc2)c1=O [Example 10, N-(6-(4-(3-(1-(4-(tert-Butyl)benzyl)-4-ethyl-5-oxo-4,5-dihydro-1H-1,2,4-triazol-3-yl)propyl)phenyl)pyridin-3-yl)benzenesulfonamide]
